# Measured values: patent publication EP4772523A1, “D-PEPTIDE AND USE THEREOF” (HIROSAKI UNIVERSITY, priority 2023, dated 2025)
# Read-outs that look alike come from different tables or passages of the source. *1 amine or outer side, *2 acyl side, *3 side chain or, on linkers, in order; H or OH if unused. Where a SMILES comes first, the peptide text is derived from it. Where no end group is shown, it is not given here. [ ]: non-standard residue; d: D form. The star is where a group is joined. Dolaproine = CO[C@@H]([C@@H]1CCCN1)[C@@H](C)C(=O)O; Hexanoyl(6-maleimido) = O=C1C=CC(=O)N1CCCCCC(=O)*; Dil = CC[C@H](C)[C@H](NC)[C@@H](CC(=O)O)OC; PABC = O=C(OCc1ccc(N[*:1])cc1)[*:2]; X1 = C[C@@H](N*)[C@@H](O)c1ccccc1; Cit = NC(=O)NCCC[C@H](N)C(=O)O; NMeV = CN[C@H](C(=O)O)C(C)C
# Legend:
# [1] = system: human head and neck cancer cells SAS and human osteosarcoma cancer cells MG-63; settings: mouse, in vivo
# [2] = system: PC3-PSMA-/ANXA1- and PC3-PSMA+/ANXA1+; settings: mouse, in vivo, ip, 28.7 mg/kg
# From the text: Further, variation in accumulation depending on the tumor size was examined. […] Tumor accumulation was examined in the same manner as above (FIG. 22).
# [3] = system: human head and neck cancer cells SAS; test: BNCT in ANXA1-positive head and neck cancer model; assay type: in vivo, nude mice
# Method: (§1) Since it was found in Example 10 that the boron concentration in the tumor tissue by administration of ^10BSH-vc-dhp7 is sufficient for the antitumor effect of neutron capture therapy (BNCT), boron neutron capture therapy by EMCS-^10BSH-vc-dhp7 was attempted in ANXA1-negative human prostate cancer and ANXA 1-positive head and neck cancer models. […] Starting from 24 hours after the administration, the tumor area was irradiated with thermal neutrons at 20 MeV 100 mA for 60 minutes using an accelerator manufactured by Sumitomo Heavy Industries (dose: 1.63 × 10^12/cm^2, average 0.23 Gy). One week after the irradiation, second BNCT treatment was performed.
# (§2) Irradiation with thermal neutrons was then performed. One week after the second irradiation, mice of each group were sacrificed. The tumor size and the tumor weight were measured, and pathological analysis of the resected tissue was performed to verify the antitumor effect. The tumor volume was measured from the start of administration until sacrifice by the calculation formula: V = long axis × short axis × short axis/2) (FIGS. 38 and 39).
# [4] = system: PC3-PSMA+ and PC3-PSMA- cells; test: Uptake of ^10BSH in PC3 cells by immunofluorescent staining (Val-Cit conjugate); assay type: cell-based, human
# Method: (§3) Uptake of ^10BSH-vc-dhp7 in cancer cells was examined. 330 µg of ^10BSH-vc-dhp7, 403.6 µg of […](EMCS-^10BSH)RR (IF7-^10BSH (a compound described in WO2019244954)) (SEQ ID NO: 40 ([…])), or 50 µg of ^10BSH was added to PC3-PSMA+ and PC3-PSMA- cells seeded in a 3.5 cm culture dish (ib81156) manufactured by ibidi. 24 hours later, the cells were washed with PBS three times and then fixed with 4% PFA. Each peptide-boron compound was prepared to have a boron concentration that allows 50 µg of ^10BSH to be finally added. After blocking with 3% BSA BD PhosFlow perm/wash buffer I (BD557885), 3% BSA BD PhosFlow perm/wash buffer I containing 1 µg/ml of the rabbit anti-^10BSH polyclonal antibody #52 was reacted at room temperature for one hour with ^10BSH taken up into the cells. After washing with PBS three times, it was reacted at room temperature for one hour with an APC-labeled anti-mouse IgG antibody (diluted 1000-fold) to detect the rabbit anti-^10BSH polyclonal antibody, and washed with PBS three times. Then, intracellular uptake of […], IF7-^10BSH, or ^10BSH in each cancer cell was examined by a fluorescence microscope (Keyence BZ9000) (FIGS. 27 and 28).
# [5] = system: PC3, SAS, and MG-63 cells; test: Uptake of ^10BSH in PC3, SAS and MG-63 cells by immunofluorescent staining; assay type: cell-based, human; settings: compared with non-addition group
# Method: as §3
# [6] = system: human prostate cancer cells PC3-PSMA-/ANXA1-; test: BNCT in ANXA1-negative prostate cancer model; assay type: in vivo, nude mice; settings: ^10BSH 50 mg/kg or conjugate 330 mg/kg intraperitoneal, two irradiations
# Method: as §1, §2
# [7] = State of dissolution in physiological saline at dosing concentration; assay type: physicochemical; settings: dosing solutions: ^10BSH 1.25 mg/25 g mouse, ^10BSH-vc-dhp7 8.25 mg/25 g mouse, IF7-^10BSH 10.08 mg/25 g mouse
# From the text: Thus, it was shown that ^10BSH-vc-dhp7 is more soluble and more flexible in designing the dosage form than IF7-^10BSH.
# [8] = molecular target: L-MC16 (L-amino acid MC16 peptide, 15 N-terminal residues of annexin A1) (human or mouse ANXA1 ("such as human ANXA1 or mouse ANXA1")); test: BLI (Octet K2), biotinylated D-peptide on SSA biosensor, L-MC16 as analyte, 37°C, 1:1 model
# [9] = system: PSMA-positive/ANXA1-positive PC3 cells; test: Anticancer treatment in femur PC3 tumor model at same vcMMAE dose; assay type: in vivo, mice; settings: four courses; for average radiance of luciferase-expressing tumor: vcMMAE-dhp7 2.14 mg/kg or vcMMAE 1.25 mg/kg intraperitoneal every four days
# Method: 2 × 10^6 PSMA-positive/ANXA1-positive PC3 cells were inoculated into the right femur. […] As control, 1.25 mg/kg (31.25 ng vcMMAE/25 g mouse) of vcMMAE alone (molecular weight: 1316.6) was administered. The tumor size was monitored by measuring the average radiance (photon/sec/cm^2/sr) of the luciferase-expressing tumor after injection of luciferin (150 mg/mouse using an IVIS system. After four courses of administration, the average radiance of the luciferase-expressing tumor and the body weight were evaluated (FIG. 48).
# [10] = system: PC3-Luc2-PSMA+/ANXA1-positive cells; test: Cytotoxicity (Cell Counting Kit-8) to ANXA1-positive PC3 cells; assay type: cell-based, human
# Method: (§4) The cell viability was analyzed by Cell Counting Kit-8 (Dojindo), and the IC50 value was calculated (FIG. 40).
# [11] = system: PSMA-negative/ANXA1-negative human prostate cancer cells PC3 and PSMA-positive/ANXA1-positive PC3 cells; test: Anticancer treatment in femur subcutaneous PC3 tumor model; assay type: in vivo, nude mice; settings: vcMMAE-dhp7 1.25 mg/kg or vcMMAE 0.919 mg/kg intraperitoneal every four days, three courses; femur tumors
# Method: As control, 0.919 mg/kg (22.975 ng vcMMAE/25 g mouse) of vcMMAE alone (molecular weight: 1316.6) was administered. The tumor size was monitored by measuring the average radiance (photon/sec/cm^2/sr) of the luciferase-expressing tumor after injection of luciferin (150 mg/mouse using an IVIS system. After three courses of administration, the average radiance of the luciferase-expressing tumor and the body weight were evaluated (FIG. 46).
# [12] = system: PSMA-negative/ANXA1-negative human prostate cancer cells PC3 and PSMA-positive/ANXA1-positive PC3 cells; test: Anticancer treatment in back subcutaneous PC3 tumor model; assay type: in vivo, nude mice
# Method: 1 × 10^6 PSMA-negative/ANXA1-negative human prostate cancer cells PC3 were inoculated into the left back of nude mice, and 1 × 10^6 PSMA-positive/ANXA1-positive PC3 cells were inoculated into the right back of the nude mice. […] As control, 0.919 mg/kg (22.975 ng vcMMAE/25 g mouse) of vcMMAE alone (molecular weight: 1316.6) was administered. The tumor size was monitored by measuring the average radiance (photon/sec/cm^2/sr) of the luciferase-expressing tumor after injection of luciferin (150 mg/mouse) using an IVIS system. After three courses of administration, the tumor size, body weight, pathological test, blood biochemical test, and blood cell count test values were evaluated (FIG. 41).
# [13] = system: PC3-Luc2-PSMA-/ANXA1-negative cells; test: Cytotoxicity (Cell Counting Kit-8) to ANXA1-negative PC3 cells; assay type: cell-based, human; settings: 37°C for 24 hours; cell viability by Cell Counting Kit-8
# Method: as §4
# [14] = system: MBT2 and PC3-PSMA+ cells; test: Uptake of ^10BSH in cancer cells by immunofluorescent staining with anti-^10BSH antibody; assay type: cell-based; settings: 50 µg added, 24 hours; compared with ^10BSH
# Method: Uptake of ^10BSH-dhp7 in cancer cells was examined. 50 µg of ^10BSH-dhp7 or ^10BSH was added to MBT2 and PC3-PSMA+ cells seeded in a 3.5 cm culture dish (ib81156) manufactured by ibidi. 24 hours later, the cells were washed with PBS three times and then fixed with 4% PFA. After blocking with 3% BSA BD PhosFlow perm/wash buffer I (BD557885), 3% BSA BD PhosFlow perm/wash buffer I containing 1 µg/ml of the rabbit anti-^10BSH polyclonal antibody #52 was reacted at room temperature for one hour with ^10BSH taken up into the cells. After washing with PBS three times, it was reacted at room temperature for one hour with an APC-labeled anti-mouse IgG antibody (diluted 1000-fold) to detect the rabbit anti-^10BSH polyclonal antibody, and washed with PBS three times. Then, intracellular uptake of ^10BSH-dhp7 or ^10BSH in each cancer cell was examined by a fluorescence microscope (Keyence BZ9000) (FIG. 16).
# [15] = system: mouse bladder cancer cells MBT2; test: Boron neutron capture therapy (BNCT) in mouse bladder cancer model; assay type: in vivo, C3H/HeN mice
# Method: Since it was found in Example 6 that ^10BSH-dhp7 is taken up into Anxa1-positive cancer cells, boron neutron capture therapy by ^10BSH-dhp7 was attempted in a mouse bladder cancer model.
# Starting from 48 hours after the administration, the tumor area was irradiated with thermal neutrons at 20 MeV 100 mA for 60 minutes using an accelerator manufactured by Sumitomo Heavy Industries (dose: 1.63 × 10^12/cm^2, average 0.23 Gy). One week after the irradiation, second BNCT treatment was performed. 24 hours prior to irradiation with thermal neutrons, 20 mg/kg (0.4 mg/20 g mouse) of ^10BSH-dhp7 was intraperitoneally administered. Irradiation with thermal neutrons was then performed. One week after the second irradiation, mice of each group were sacrificed. The tumor size and the tumor weight were measured, and pathological analysis of the resected tissue was performed to verify the antitumor effect. The tumor volume was measured from the start of administration until sacrifice by the calculation formula: V = long axis × short axis × short axis/2) (FIG. 17).
molecule,measurement,setting,value
c(MI-Cy7.5)-vc-hpnevrs [Cy7.5-vc-dhp7],start of selective accumulation in the tumor tissue,[1],60 min
same,time of maximum tumor accumulation,[1],2 to 24 h
same,tumor accumulation maintained until,[1],96 h
same,start of selective accumulation in the tumor tissue,[2],60 min
same,tumor accumulation maintained until,[2],96 h
EMCS-^10BSH-val-cit-hpnevrs ([dH][dP][dN][dE][dV][dR][dS]; not fully specified (N-terminus); printed as EMCS-^10BSH-val-cit-hpnevrs) [^10BSH-vc-dhp7],"tumor growth suppressing effect, BNCT treatment group","[3]; ANXA1-positive head and neck cancer model, 330 mg/kg intraperitoneal, starting immediately after the first BNCT",tumor growth suppressing effect more remarkable than that in the ^10BSH and BNCT treatment group
same,tumor volume compared with ^10BSH and BNCT treatment group,[3]; one week after the second irradiation,reduced tumor volume
same,efficiency of intracellular intake of ^10BSH,"[4]; ANXA1-positive PC3 cells, versus IF7-^10BSH and ^10BSH treatment groups",statistically significantly higher
same,uptake in PSMA-negative cells compared with PSMA-positive cells,[4]; PSMA-negative cells expressing less ANXA1 on the cell surface,took up ^10BSH-vc-dhp7 less than the PSMA-positive cells did
same,intracellular uptake of ^10BSH (fluorescence),"[4]; amount equal to 50 µg of ^10BSH, 24 hours, compared with ^10BSH",more dotted intracellular fluorescence was observed
same,intracellular intake of ^10BSH,[5],statistically significant intracellular intake of ^10BSH in all cells
same,"tumor reduction effect, BNCT treatment group",[6],no tumor reduction effect was observed
same,state in physiological saline,[7],in a dissolved state
biotin-dqy7 (D-amino acid peptide qyatnlk modified with biotin at the N-terminus),Kd,[8],990 nM
CC[C@H](C)[C@@H]([C@@H](CC(=O)N1CCC[C@H]1[C@H](OC)[C@@H](C)C(=O)N[C@H](C)[C@@H](O)c1ccccc1)OC)N(C)C(=O)[C@@H](NC(=O)[C@H](C(C)C)N(C)C(=O)OCc1ccc(NC(=O)[C@H](CCCNC(N)=O)NC(=O)[C@@H](NC(=O)CCCCCN2C(=O)C=CC2=O)C(C)C)cc1)C(C)C [vcMMAE] ({Hexanoyl(6-maleimido)}-V[Cit][PABC][NMeV]V[Dil][Dolaproine]-X1),average radiance of luciferase-expressing tumor,[9],tended to increase
same,in-vitro sensitivity of Anxa1-positive cells relative to ANXA1-negative cells,[10],twice
same,average radiance of luciferase-expressing tumor,[11],tended to increase
same,white blood cell count,"[12]; 0.919 mg/kg, post-treatment",reduced
c(vcMMAE)-hpnevrs [vcMMAE-dhp7],resected tumor weights compared with vcMMAE treatment group,[9],markedly smaller
same,average radiance of luciferase-expressing tumor,[9],markedly reduced
same,IC50 value,"[10]; 37°C for 24 hours, cell viability by Cell Counting Kit-8",122.7 ng
same,in-vitro sensitivity of Anxa1-positive cells relative to ANXA1-negative cells,[10]; PC3 cells,twice
same,IC50 value,[13],204.5 ng
same,average radiance of luciferase-expressing tumor,[11],reduced similarly over the three courses of treatment
same,average radiance of luciferase-expressing tumor,"[12]; 1.25 mg/kg intraperitoneal every four days, three courses, back subcutaneous tumors",almost completely reduced
same,appearance and HE staining of resected tumors,[12]; in contrast to vcMMAE alone administration group,marked necrotic change and fewer residual tumors were observed
same,CD31-positive vessel density in the residual tumors,[12]; versus vcMMAE treatment group,statistically significantly reduced
biotin-dhp7 (D-amino acid peptide hpnevrs modified with biotin at the N-terminus),Kd,[8],480 nM
"IFLLWQRK(EMCS-^10BSH)RR (EMCS-10BSH boron cluster; C-terminal RR) [IF7-^10BSH, reference compound]",state in physiological saline,[7],poorly soluble and cloudy
biotin-dst7 (D-amino acid peptide stsrntl modified with biotin at the N-terminus),Kd,[8],720 nM
"EMCS-^10BSH-hpnevrs (HPNEVRS; not fully specified (some residues, N-terminus); printed as EMCS-^10BSH-hpnevrs) [^10BSH-dhp7]",intracellular uptake of ^10BSH (fluorescence),[14],dotted intracellular fluorescence was observed
same,"tumor reduction effect, non-BNCT treatment group","[15]; 20 mg/kg intraperitoneal, no irradiation",no tumor reduction effect was observed
same,"tumor reduction effect, BNCT treatment group","[15]; 20 mg/kg intraperitoneal, two thermal neutron irradiations, one week after the second irradiation",tumors almost completely disappeared
same,residual tumors in pathological analysis of resected tissues,[15]; administration and BNCT treatment group,no residual tumors in four of eight cases
